Assay results as given in publication PMC7031696 (Cell chemical biology, 2019).
Read-outs that look alike come from different tables or passages of the source.

Tests used:
[1] = tested on: Plasmodium falciparum 3D7-A10 parasites; experiment: Stage specificity assay (8-h exposure of synchronized stages, IC50^8h); type: cell-based; settings: for IC50: Plasmodium falciparum
[2] = tested on: asynchronous 3D7-A10 parasite cultures; experiment: Standard 72-h exposure asexual blood stage susceptibility assay (IC50^72h); type: cell-based, Plasmodium falciparum; settings: Plasmodium falciparum, 3D7, 72 h, read-out: Overall (72hr assay) Mean IC50 (IC50^72h)
[3] = tested on: 3D7-MR4 trophozoite parasite-infected RBCs; experiment: Metabolomic profiling (hydrophilic metabolite changes, UHPLC-MS); type: cell-based, Plasmodium falciparum

Ratio lowest IC50 8hr/IC50 72hr ([1]; 3D7-A10): 1.8 | IC50 [2]: 91.3 nM
Compound: FC(F)(F)c1cccc(Nc2nc3ccccc3nc2Nc2cccc(C(F)(F)F)c2)c1 [MMV665794]
IC50 ([1]; 3D7, read-out: Early rings Mean IC50 (IC50^8h), 8-h exposure 0–8 hr, 3D7-A10, survival at 60 h): 369 nM | IC50 ([1]; 3D7, read-out: Early trophozoites Mean IC50 (IC50^8h), 8-h exposure 16–24 hr, 3D7-A10, survival at 60 h): 210 nM | IC50 ([1]; 3D7, read-out: Late rings Mean IC50 (IC50^8h), 8-h exposure 8–16 hr, 3D7-A10, survival at 60 h): 590 nM | IC50 ([1]; 3D7, read-out: Late trophozoites Mean IC50 (IC50^8h), 8-h exposure 24–32 hr, 3D7-A10, survival at 60 h): 165 nM | IC50 ([1]; 3D7, read-out: Schizonts Mean IC50 (IC50^8h), 8-h exposure 32–40 hr, 3D7-A10, survival at 60 h): 203 nM | Log2(fold changes) 3-phosphoglycerate ([3]; metabolite 3-phosphoglycerate, log2 fold change): 0.1475 | Log2(fold changes) 4-Pyridoxic acid ([3]; metabolite 4-Pyridoxic acid, log2 fold change): 0.1397 | Log2(fold changes) 4-aminobutyrate ([3]; metabolite 4-aminobutyrate, log2 fold change): -0.1443 | Log2(fold changes) 4-phosphopantetheine ([3]; metabolite 4-phosphopantetheine, log2 fold change): 0.0000 | Log2(fold changes) 4-phosphopantothenate ([3]; metabolite 4-phosphopantothenate, log2 fold change): 0.0000 | Log2(fold changes) 5-aminopentanoic acid ([3]; metabolite 5-aminopentanoic acid, log2 fold change): 0.0000 | Log2(fold changes) 5-methyl-THF ([3]; metabolite 5-methyl-THF, log2 fold change): 0.0000 | Log2(fold changes) 5-phosphoribosyl-1-pyrophosphate ([3]; metabolite 5-phosphoribosyl-1-pyrophosphate, log2 fold change): 0.0000 | Log2(fold changes) 6-phospho-D-gluconate ([3]; metabolite 6-phospho-D-gluconate, log2 fold change): 0.0648 | Log2(fold change) HVDD ([3]; metabolite HVDD): 0.0000 | Log2(fold change) Hydroxyisocaproic acid ([3]; metabolite Hydroxyisocaproic acid): 0.0000 | Log2(fold change) IDP ([3]; metabolite IDP): 0.0000 | Log2(fold change) IMP ([3]; metabolite IMP): -0.1724 | Log2(fold change) Inositol ([3]; metabolite Inositol): 0.4519 | Log2(fold change) Isopentyl-PP ([3]; metabolite Isopentyl-PP): 0.0000 | Log2(fold change) L-arginino-succinate ([3]; metabolite L-arginino-succinate): 0.0000 | Log2(fold change) LD ([3]; metabolite LD): 0.2876 | Log2(fold change) Myristoyl/tetradecanoyl-CoA ([3]; metabolite Myristoyl/tetradecanoyl-CoA): 0.0000 | Log2(fold change) N-Acetyl-L-alanine ([3]; metabolite N-Acetyl-L-alanine): -0.5892 | Log2(fold change) N-acetyl-L-ornithine ([3]; metabolite N-acetyl-L-ornithine): -0.6613 | Log2(fold change) N-acetyl-glucosamine-1/6-phosphate ([3]; metabolite N-acetyl-glucosamine-1/6-phosphate): 0.0457 | Log2(fold change) N-acetyl-glutamate ([3]; metabolite N-acetyl-glutamate): 0.0432 | Log2(fold change) N-acetyl-glutamine ([3]; metabolite N-acetyl-glutamine): -0.6444 | Log2(fold change) N-carbamoyl-L-aspartate ([3]; metabolite N-carbamoyl-L-aspartate): 0.7842 | Log2(fold change) NAD+ ([3]; metabolite NAD+): -0.0023 | Log2(fold change) NADH ([3]; metabolite NADH): 0.0000 | Log2(fold change) NADP+ ([3]; metabolite NADP+): 0.2420 | Log2(fold change) NADPH ([3]; metabolite NADPH): 0.2872 | Log2(fold change) O-acetyl-L-serine ([3]; metabolite O-acetyl-L-serine): 0.0000 | Log2(fold change) Octoluse 8/1P ([3]; metabolite Octoluse 8/1P): -0.0525 | Log2(fold change) Octoluse Bisphosphate ([3]; metabolite Octoluse Bisphosphate): -0.0227 | Log2(fold change) PD ([3]; metabolite PD): -1.6060 | Log2(fold change) PE ([3]; metabolite PE): -1.2530 | Log2(fold change) PEE ([3]; metabolite PEE): -0.7348 | Log2(fold change) PEEK ([3]; metabolite PEEK): -2.1636 | Log2(fold change) PVNF ([3]; metabolite PVNF): -0.9738 | Log2(fold change) Pyroglutamic acid ([3]; metabolite Pyroglutamic acid): -0.1549 | Log2(fold change) Pyrophosphate ([3]; metabolite Pyrophosphate): 0.0000 | Log2(fold change) Ribose-5-phosphate ([3]; metabolite Ribose-5-phosphate): 0.0000 | Log2(fold change) S-adenosyl-L-homocysteine ([3]; metabolite S-adenosyl-L-homocysteine): -0.1116 | Log2(fold change) S-adenosyl-L-methioninamine ([3]; metabolite S-adenosyl-L-methioninamine): 0.0000 | Log2(fold change) S-adenosyl-L-methionine ([3]; metabolite S-adenosyl-L-methionine): 0.0000 | Log2(fold change) S-methyl-5'-thioadenosine ([3]; metabolite S-methyl-5'-thioadenosine): -0.0770 | Log2(fold change) SD ([3]; metabolite SD): -0.6103 | Log2(fold change) SDL ([3]; metabolite SDL): 0.0000 | Log2(fold change) SID ([3]; metabolite SID): 0.0000 | Log2(fold change) Sedoheptulose bisphosphate ([3]; metabolite Sedoheptulose bisphosphate): 0.0000 | Log2(fold change) Thiamine pyrophosphate ([3]; metabolite Thiamine pyrophosphate): 0.0000 | Log2(fold changes) UDP-D-glucose ([3]; metabolite UDP-D-glucose, log2 fold change): 0.0057 | Log2(fold changes) UDP-D-glucuronate ([3]; metabolite UDP-D-glucuronate, log2 fold change): 0.0333 | Log2(fold changes) UDP-N-acetyl-glucosamine ([3]; metabolite UDP-N-acetyl-glucosamine, log2 fold change): -0.0841 | Log2(fold changes) UDP ([3]; metabolite UDP, log2 fold change): -0.2966 | Log2(fold changes) UMP ([3]; metabolite UMP, log2 fold change): -0.1315 | Log2(fold changes) UTP ([3]; metabolite UTP, log2 fold change): -0.1979 | Log2(fold change) hydroxyphenylpyruvate ([3]; metabolite hydroxyphenylpyruvate): 0.0000 | Log2(fold change) hydroxyproline/Aminolevulinate ([3]; metabolite hydroxyproline/Aminolevulinate): 0.0000 | Log2(fold change) hypoxanthine ([3]; metabolite hypoxanthine): 0.0564 | Log2(fold change) indole ([3]; metabolite indole): 0.0000 | Log2(fold change) inosine ([3]; metabolite inosine): -0.1857 | Log2(fold change) isoleucine ([3]; metabolite isoleucine): 0.0000 | Log2(fold change) lactate ([3]; metabolite lactate): -0.1258 | Log2(fold change) leucine ([3]; metabolite leucine): 0.0000 | Log2(fold change) lysine ([3]; metabolite lysine): -1.0057 | Log2(fold change) malate ([3]; metabolite malate): -0.5114 | Log2(fold change) maleic acid ([3]; metabolite maleic acid): 0.0000 | Log2(fold change) methionine ([3]; metabolite methionine): 0.1032 | Log2(fold change) myo-inositol ([3]; metabolite myo-inositol): -0.1088 | Log2(fold change) nicotinamide mononucleotide ([3]; metabolite nicotinamide mononucleotide): 0.0000 | Log2(fold change) nicotinate ([3]; metabolite nicotinate): -0.0014 | Log2(fold change) ornithine ([3]; metabolite ornithine): -0.5221 | Log2(fold change) orotate ([3]; metabolite orotate): -0.1200 | Log2(fold change) orotidine-5'-phosphate ([3]; metabolite orotidine-5'-phosphate): -0.1502 | Log2(fold change) oxaloacetate ([3]; metabolite oxaloacetate): 0.0000 | Log2(fold change) p-aminobenzoate ([3]; metabolite p-aminobenzoate): 0.0000 | Log2(fold change) p-hydroxybenzoate ([3]; metabolite p-hydroxybenzoate): 0.0000 | Log2(fold change) pantothenate ([3]; metabolite pantothenate): -0.3232 | Log2(fold change) phenylalanine ([3]; metabolite phenylalanine): -0.3048 | Log2(fold change) phenylpyruvate ([3]; metabolite phenylpyruvate): 0.0000 | Log2(fold change) phosphoenolpyruvate ([3]; metabolite phosphoenolpyruvate): 0.2889 | Log2(fold change) prephenate ([3]; metabolite prephenate): 0.0000 | Log2(fold change) proline ([3]; metabolite proline): -0.1760 | Log2(fold change) pyridoxine ([3]; metabolite pyridoxine): -0.0343 | Log2(fold change) pyruvate ([3]; metabolite pyruvate): -0.4249 | Log2(fold change) riboflavin ([3]; metabolite riboflavin): 0.0000 | Log2(fold change) ribose ([3]; metabolite ribose): 0.0000 | Log2(fold change) ribose-phosphate ([3]; metabolite ribose-phosphate): -0.1845 | Log2(fold change) ribulose-5-phosphate ([3]; metabolite ribulose-5-phosphate): 0.0000 | Log2(fold change) serine ([3]; metabolite serine): -0.0943 | Log2(fold change) sn-glycerol-3-phosphate ([3]; metabolite sn-glycerol-3-phosphate): 0.1547 | Log2(fold change) succinate/Methylmalonic acid ([3]; metabolite succinate/Methylmalonic acid): 0.2773 | Log2(fold change) succinyl-CoA/methylmalonyl-CoA ([3]; metabolite succinyl-CoA/methylmalonyl-CoA): 0.0000 | Log2(fold change) taurine ([3]; metabolite taurine): 0.4682 | Log2(fold change) thiamine ([3]; metabolite thiamine): -0.4163 | Log2(fold change) threonine/homoserine ([3]; metabolite threonine/homoserine): -0.3057 | Log2(fold change) thymidine ([3]; metabolite thymidine): 0.0000 | Log2(fold changes) thymine ([3]; metabolite thymine, log2 fold change): 0.0000 | Log2(fold changes) trehalose-6-Phosphate ([3]; metabolite trehalose-6-Phosphate, log2 fold change): 0.0000 | Log2(fold changes) tryptophan ([3]; metabolite tryptophan, log2 fold change): -0.2265 | Log2(fold changes) tyrosine ([3]; metabolite tyrosine, log2 fold change): -0.1308 | Log2(fold changes) uridine ([3]; metabolite uridine, log2 fold change): -0.0071
